In general, IC50 refers to the midpoint of a concentration-inhibition curve.

Consider 38 molecules from US8541461B2 (Astex Therapeutics Limited, priority 2005, dated 2013).

Where two headings read alike, the source gives them in different places. Where only a bound is given, the exact number is not on record here.

For experiment [1], the target named is T1, PKB-PIF fusion protein (protein kinase B) (Homo sapiens, UniProt P31751).
T1 construct: PIF (fusion partner); made in house
The experiment in a line: Measurement of PKB kinase inhibitory activity (IC50). Format: biochemical. As to the method:
The reaction is allowed to proceed for 20 minutes before addition of excess orthophosphoric acid to quench activity. The reaction mixture is transferred to a phosphocellulose filter plate where the peptide binds and the unused ATP is washed away. After washing, scintillant is added and the incorporated activity measured by scintillation counting.

Experiment [2] deals with T2, PKA catalytic domain (Homo sapiens, UniProt P17612).
T2 construct: PKA catalytic domain from Upstate Biotechnology (#14-440); purchased Upstate Biotechnology 14-440
Nature of the experiment: Measurement of PKA kinase inhibitory activity (IC50). Format: biochemical. As to the method:
A final concentration of 1 nM enzyme is used in a buffer that includes 20 mM MOPS pH 7.2, 40 μM ATP/γ^33P-ATP and 5 μM substrate. […] The reaction is allowed to proceed for 20 minutes before addition of excess orthophosphoric acid to quench activity. Unincorporated γ^33P-ATP is then separated from phosphorylated proteins on a Millipore MAPH filter plate. The plates are washed, scintillant is added and the plates are then subjected to counting on a Packard Topcount.

[3] abbreviates: 1 nM enzyme, 40 μM ATP/γ33P-ATP, 5 μM substrate, read-out: PKA IC50.
Setting [4] is: 0.6 nM enzyme, 30 μM ATP/γ33P-ATP, 25 μM AKTide-2T substrate, read-out: PKB IC50.

T1 sequence (P31751 with tags, fused parts or gaps limits assumed): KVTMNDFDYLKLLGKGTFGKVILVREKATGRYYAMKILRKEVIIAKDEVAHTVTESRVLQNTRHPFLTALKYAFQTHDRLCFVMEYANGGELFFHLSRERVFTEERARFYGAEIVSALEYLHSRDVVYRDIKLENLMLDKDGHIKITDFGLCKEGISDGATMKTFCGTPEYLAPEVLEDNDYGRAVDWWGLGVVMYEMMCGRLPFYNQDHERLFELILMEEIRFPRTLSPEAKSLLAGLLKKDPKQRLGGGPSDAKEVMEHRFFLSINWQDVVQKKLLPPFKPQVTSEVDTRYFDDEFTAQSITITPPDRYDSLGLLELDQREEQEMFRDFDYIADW

As to `NCC(c1ccccc1)c1ccc(-c2cn[nH]c2)cc1` (stereo not shown) [Example 1, 2-Phenyl-2-[4-(1H-pyrazol-4-yl)-phenyl]-ethylamine], the concentration for half-maximal inhibition (IC50) in experiment [1] and in experiment [2] was less than 1000 nM throughout.

Take `NCC(c1ccc(Cl)cc1)c1ccc(-c2cn[nH]c2)cc1` (stereo not shown) [Example 4, 2-(4-Chloro-phenyl)-2-[4-(1H-pyrazol-4-yl)-phenyl]-ethylamine]: in experiment [2] (setting [3]), the half-maximal inhibitory concentration (IC50) was less than 1000 nM.

Regarding `Cc1n[nH]c(C)c1-c1cccc(CC(N)c2ccccc2)c1` (stereo not shown) [Example 5, 2-[3-(3,5-Dimethyl-1H-pyrazol-4-yl)-phenyl]-1-phenyl-ethylamine], the IC50 in experiment [1] (setting [4]) is less than 5000 nM; in experiment [2] (setting [3]), less than 15000 nM.

For `NCC(Cc1ccccc1)c1ccc(-c2cn[nH]c2)cc1` (stereo not shown) [Example 7, 3-Phenyl-2-[4-(1H-pyrazol-4-yl)-phenyl]-propylamine], the figures for the half-maximal inhibitory concentration (IC50) in experiment [1] (setting [4]) and in experiment [2] (setting [3]) were less than 5000 nM and less than 15000 nM, respectively.

For `CCNCC(c1ccc(Cl)cc1)c1ccc(-c2cn[nH]c2)cc1` (stereo not shown) [Example 43, {2-(4-Chloro-phenyl)-2-[4-(1H-pyrazol-4-yl)-phenyl]-ethyl}-ethyl-amine], the IC50 in experiment [1] (setting [4]) and in experiment [2] (setting [3]) was less than 1000 nM throughout.

For the molecule `Clc1ccc(C(Cn2ccnc2)c2ccc(-c3cn[nH]c3)cc2)cc1` (stereo not shown) [Example 44, 4-{4-[1-(4-Chloro-phenyl)-2-imidazol-1-yl-ethyl]-phenyl}-1H-pyrazole], the half-maximal inhibitory concentration (IC50) in experiment [1] (setting [4]) and in experiment [2] (setting [3]) was less than 1000 nM throughout.

Regarding `CNCC(c1ccc(Oc2ccccc2)cc1)c1ccc(-c2cn[nH]c2)cc1` (stereo not shown) [Example 45, Methyl-{2-(4-phenoxy-phenyl)-2-[4-(1H-pyrazol-4-yl)-phenyl]-ethyl}-amine], the 50% inhibitory concentration (IC50) is less than 5000 nM in experiment [1] (setting [4]) and less than 1000 nM in experiment [2] (setting [3]).

In the case of `CNCC(c1ccc(OC)cc1)c1ccc(-c2cn[nH]c2)cc1` (stereo not shown) [Example 46, {2-(4-Methoxy-phenyl)-2-[4-(1H-pyrazol-4-yl)-phenyl]-ethyl}-methyl-amine], the 50% inhibitory concentration (IC50) in experiment [1] (setting [4]) and in experiment [2] (setting [3]) was less than 1000 nM throughout.

`CNCC(c1ccc(Oc2cnccn2)cc1)c1ccc(-c2cn[nH]c2)cc1` (stereo not shown) [Example 47, Methyl-{2-[4-(pyrazin-2-yloxy)-phenyl]-2-[4-(1H-pyrazol-4-yl)-phenyl]-ethyl}-amine]: the IC50 in experiment [1] (setting [4]) and in experiment [2] (setting [3]) was less than 1000 nM each time.

Consider `CNCC(Oc1ccccc1)c1ccc(-c2cn[nH]c2)cc1` (stereo not shown) [Example 48, Methyl-{2-phenoxy-2-[4-(1H-pyrazol-4-yl)-phenyl]-ethyl}-amine], for which the IC50 in experiment [1] (setting [4]) was less than 5000 nM; in experiment [2] (setting [3]), less than 1000 nM.

With `NCCOC(c1ccc(Cl)cc1)c1ccc(-c2cn[nH]c2)cc1` (stereo not shown) [Example 49, 2-{(4-Chloro-phenyl)-[4-(1H-pyrazol-4-yl)-phenyl]-methoxy}-ethylamine], the IC50 in experiment [1] (setting [4]) and in experiment [2] (setting [3]) was less than 1000 nM each time.

On to `CNCCC(c1ccc(-c2cn[nH]c2)cc1)c1ccc2ccccc2c1` (stereo not shown) [Example 52, Methyl-{3-naphthalen-2-yl-3-[4-(1H-pyrazol-4-yl)-phenyl]-propyl}-amine], for which the IC50 in experiment [1] (setting [4]) and in experiment [2] (setting [3]) was less than 1000 nM in each case.

As to `CNCCC(c1ccc(F)cc1)c1ccc(-c2cn[nH]c2)cc1` (stereo not shown) [Example 54, {3-(4-Fluoro-phenyl)-3-[4-(1H-pyrazol-4-yl)-phenyl]-propyl}-methyl-amine], the half-maximal inhibitory concentration (IC50) in experiment [1] (setting [4]) and in experiment [2] (setting [3]) was less than 1000 nM in each case.

Take `CNCCC(Oc1cccc(Cl)c1)c1ccc(-c2cn[nH]c2)cc1` (stereo not shown) [Example 59, {3-(3-Chloro-phenoxy)-3-[4-(1H-pyrazol-4-yl)-phenyl]-propyl}-methyl-amine]: the IC50 in experiment [1] (setting [4]) and in experiment [2] (setting [3]) was less than 1000 nM each time.

Take `Oc1ccc(C2(c3ccc(-c4cn[nH]c4)cc3)CCNCC2)cc1` [Example 63, 4-{4-[4-(1H-Pyrazol-4-yl)-phenyl]-piperidin-4-yl}-phenol]: the half-maximal inhibitory concentration (IC50) in experiment [1] (setting [4]) and in experiment [2] (setting [3]) was less than 1000 nM throughout.

Regarding `CNCC(c1ccc(-c2cn[nH]c2)cc1)c1cccc(Cl)c1` (stereo not shown) [Example 66, {2-(3-Chloro-phenyl)-2-[4-(1H-pyrazol-4-yl)-phenyl]-ethyl}-methyl-amine], the IC50 in experiment [1] (setting [4]) and in experiment [2] (setting [3]) was less than 1000 nM in each case.

Take `COCCOc1ccc(C2(c3ccc(-c4cn[nH]c4)cc3)CCNCC2)cc1` [Example 67, 4-[4-(2-Methoxy-ethoxy)-phenyl]-4-[4-(1H-pyrazol-4-yl)-phenyl]-piperidine]: the figures for the IC50 in experiment [1] (setting [4]) and in experiment [2] (setting [3]) were less than 5000 nM and less than 1000 nM, respectively.

`CNCC(c1ccc(Oc2cc(C(N)=O)ccn2)cc1)c1ccc(-c2cn[nH]c2)cc1` (stereo not shown) [Example 70, 2-(4-{2-Methylamino-1-[4-(1H-pyrazol-4-yl)-phenyl]-ethyl}-phenoxy)-isonicotinamide]: the IC50 in experiment [1] (setting [4]) was less than 50000 nM.

On to `CNCC(Oc1ccc(Cl)cc1)c1ccc(-c2cn[nH]c2)cc1` (stereo not shown) [Example 71, {2-(4-Chloro-phenoxy)-2-[4-(1H-pyrazol-4-yl)-phenyl]-ethyl}-methyl-amine], for which the IC50 in experiment [1] (setting [4]) is less than 1000 nM.

With `OCCCNCC(c1ccc(Cl)cc1)c1ccc(-c2cn[nH]c2)cc1` (stereo not shown) [Example 72], the IC50 in experiment [1] (setting [4]) is less than 1000 nM.

`OCCNCC(c1ccc(Cl)cc1)c1ccc(-c2cn[nH]c2)cc1` (stereo not shown) [Example 73, 2-{2-(4-Chloro-phenyl)-2-[4-(1H-pyrazol-4-yl)-phenyl]-ethylamino}-ethanol]: the IC50 in experiment [1] (setting [4]) and in experiment [2] (setting [3]) was less than 1000 nM in each case.

Regarding `CNCC(c1ccc(-c2cccnc2)cc1)c1ccc(-c2cn[nH]c2)cc1` (stereo not shown) [Example 75, Methyl-[2-[4-(1H-pyrazol-4-yl)-phenyl]-2-(4-pyridin-3-yl-phenyl)-ethyl]-amine], the IC50 in experiment [1] (setting [4]) is less than 5000 nM.

Turning to `CNCCC(c1ccc(O)cc1)c1ccc(-c2cn[nH]c2)cc1` (stereo not shown) [Example 76, 4-{3-Methylamino-1-[4-(1H-pyrazol-4-yl)-phenyl]-propyl}-phenol], the half-inhibitory concentration (IC50) in experiment [1] (setting [4]) was less than 1000 nM.

`COc1ccc(C(CCN)c2ccc(-c3cn[nH]c3)cc2)cc1` (stereo not shown) [Example 77, 3-(4-Methoxy-phenyl)-3-[4-(1H-pyrazol-4-yl)-phenyl]-propylamine]: in experiment [1] (setting [4]), the 50% inhibitory concentration (IC50) is less than 1000 nM.

Consider `Cc1n[nH]cc1-c1ccc(C2(c3ccc(Cl)cc3)CCNCC2)cc1` [Example 78, 4-(4-Chloro-phenyl)-4-[4-(3-methyl-1H-pyrazol-4-yl)-phenyl]-piperidine], for which the IC50 in experiment [1] (setting [4]) and in experiment [2] (setting [3]) was less than 1000 nM each time.

For `Clc1ccc(C2(c3ccc(-c4cn[nH]c4)cc3)CNCCO2)cc1` (stereo not shown) [Example 79, 2-(4-Chloro-phenyl)-2-[4-(1H-pyrazol-4-yl)-phenyl]-morpholine], the concentration for half-maximal inhibition (IC50) in experiment [1] and in experiment [2] was less than 1000 nM each time.

With `N#Cc1ccc(C2(c3ccc(-c4cn[nH]c4)cc3)CCNCC2)cc1` [Example 81, 4-{4-[4-(1H-Pyrazol-4-yl)-phenyl]-piperidin-4-yl}-benzonitrile], the half-inhibitory concentration (IC50) in experiment [1] (setting [4]) and in experiment [2] (setting [3]) was less than 1000 nM in each case.

As to `CNCC(C)(c1ccc(Cl)cc1)c1ccc(-c2cn[nH]c2)cc1` (stereo not shown) [Example 82, {2-(4-Chloro-phenyl)-2-[4-(1H-pyrazol-4-yl)-phenyl]-propyl}-methyl-amine], the 50% inhibitory concentration (IC50) in experiment [1] (setting [4]) and in experiment [2] (setting [3]) was less than 1000 nM throughout.

As for `CNCC(O)(c1ccc(Cl)cc1)c1ccc(-c2cn[nH]c2)cc1` (stereo not shown) [Example 83, 1-(4-Chloro-phenyl)-2-methylamino-1-[4-(1H-pyrazol-4-yl)-phenyl]-ethanol], the IC50 in experiment [1] (setting [4]) and in experiment [2] (setting [3]) was less than 1000 nM each time.

As for `NCC(O)(c1ccc(Cl)cc1)c1ccc(-c2cn[nH]c2)cc1` (stereo not shown) [Example 84, 2-Amino-1-(4-chloro-phenyl)-1-[4-(1H-pyrazol-4-yl)-phenyl]-ethanol], the half-maximal inhibitory concentration (IC50) in experiment [1] (setting [4]) and in experiment [2] (setting [3]) was less than 1000 nM in each case.

With `Clc1ccc(C2(c3ccc(-c4cn[nH]c4)cc3)CCNCC2)cc1Cl` [Example 85, 4-(3,4-Dichloro-phenyl)-4-[4-(1H-pyrazol-4-yl)-phenyl]-piperidine], the half-maximal inhibitory concentration (IC50) in experiment [1] (setting [4]) and in experiment [2] (setting [3]) was less than 1000 nM in each case.

For the molecule `COc1ccc(C2(c3ccc(-c4cn[nH]c4)cc3)CCNCC2)cc1Cl` [Example 86, 4-(3-Chloro-4-methoxy-phenyl)-4-[4-(1H-pyrazol-4-yl)-phenyl]-piperidine], the IC50 in experiment [1] (setting [4]) and in experiment [2] (setting [3]) was less than 1000 nM throughout.

Consider `Fc1cc(C2(c3ccc(-c4cn[nH]c4)cc3)CCNCC2)ccc1Cl` [Example 87, 4-(4-Chloro-3-fluoro-phenyl)-4-[4-(1H-pyrazol-4-yl)-phenyl]-piperidine], for which the half-inhibitory concentration (IC50) in experiment [1] (setting [4]) is less than 1000 nM.

Regarding `c1cc(C2(c3ccc(-c4cn[nH]c4)cc3)CCNCC2)ccn1` [Example 89, 4-[4-(1H-Pyrazol-4-yl)-phenyl]-1,2,3,4,5,6-hexahydro-[4,4′]bipyridinyl], the IC50 in experiment [1] (setting [4]) is less than 5000 nM.

`NCCC(c1ccc(-c2cn[nH]c2)cc1)c1cccc(Cl)c1` (stereo not shown) [Example 90, 3-(3-Chloro-phenyl)-3-[4-(1H-pyrazol-4-yl)-phenyl]-propylamine]: the IC50 in experiment [1] (setting [4]) and in experiment [2] (setting [3]) was less than 1000 nM throughout.

Regarding `CNCC(O)(c1ccc(-c2cn[nH]c2)cc1)c1ccc([N+](=O)[O-])cc1` (stereo not shown) [Example 91, 2-Methylamino-1-(4-nitro-phenyl)-1-[4-(1H-pyrazol-4-yl)-phenyl]-ethanol], the IC50 in experiment [1] (setting [4]) was less than 1000 nM.

Take `NCCC(c1ccc(-c2cn[nH]c2)nc1)c1ccc(Cl)c(Cl)c1` (stereo not shown) [Example 94, 3-(3,4-Dichloro-phenyl)-3-[6-(1H-pyrazol-4-yl)-pyridin-3-yl]-propylamine]: the IC50 in experiment [1] (setting [4]) is less than 1000 nM.

In the case of `NC(c1ccc(Cl)cc1)c1ccc(-c2cn[nH]c2)cc1` (stereo not shown) [Example 104, C-(4-Chloro-phenyl)-C-[4-(1H-pyrazol-4-yl)-phenyl]-methylamine], the IC50 in experiment [1] (setting [4]) is less than 1000 nM.
